{"source": "patent US20110195910A1", "about": "“USE OF TOCOTRIENOL COMPOSITION FOR THE PREVENTION OF CANCER” (DAVOS LIFE SCIENCE PTE. LTD., priority 2008, published 2011)", "key": {"C32 cells": {"tested_on": "C32 cells", "experiment": "Flow cytometry and western blotting, C32 cells", "type": "cell-based", "description": "1.1.3 Flow cytometry—Cell cycle distribution was examined using flow cytometry. Briefly, cells were harvested by trypsinization, fixed in 70% ethanol at 4° C. overnight, and then resuspended in PBS. After incubation at 4° C. for overnight, 2×10^6 cells were incubated with in 20 μg/ml propidium iodide (PI) and 2 mg RNaseA for 15 minutes at 37° C. Cells were then examined by BD SLRII cytometer and the results were analyzed using ModFit software (Becton Dickinson, Mountain View, Calif.). Data were expressed as the percentage of cell cycle distribution in the entire population.\n1.1.5 Western blotting—Detailed protocols have been described previously and are known in the art. Briefly, cell lysates were prepared by suspending cell pellets in lysis buffer [50 mmol/l Tris-HCl (pH 8.0), 150 mmol/l NaCl, 1% NP40, 0.5% deoxycholate, 0.1% SDS, 1 mg/ml aprotinin, 1 μg/ml leupeptin and 1 mmol/l phenylmethylsulfonyl fluoride]. For nuclear protein extraction, NucBuster™ protein extraction kit was used. Protein concentration was measured using the DC Protein Assay kit (Bio-Rad, Hercules, Calif.). Equal amount of protein (30 μg) was loaded onto a 10% SDS polyacrylamide gel for electrophoresis and then transferred onto a polyvinylidene difluoride membrane (Amersham, Piscataway, N.J.). The membrane was then incubated with primary antibodies for 1 hr at room temperature against E-cadherin (BD Biosciences, Bedford, Mass.), α-catenin, β-catenin, γ-catenin, Id-1, Id-3, EGFR, phosphor-c-jun, phosphor-ATF2, cleaved PARP, vimentin, α-smooth muscle actin, twist (Santa Cruz Biotechnology, Calif.), phosphor-IkB-alpha (Ser32/36), phosphor-IKK alpha (Seri 80)/IKK beta (Ser181), phosphor-SAPK/JNK (Thr183/Tyr185) G9, SAPK/JNK, NF-kB p65 (5A5) (Cell Signaling Technology Inc, Beverly, Mass.), Snail (Abcam). After incubation with appropriate secondary antibodies, signals were visualized by ECL western blotting system (Amersham, Piscataway, N.J.). Expression of β-actin and histone H1 were assessed as an internal loading control for total cell lysate and nuclear protein lysate respectively."}, "PC-3 cells": {"tested_on": "PC-3 cells", "experiment": "Matrigel-invasion assay, PC-3 cells", "type": "cell-based, human", "settings": "γ-T3 at IC50, 24 hrs", "description": "1.1.4 Matrigel-invasion assay—Matrigel-invasion assay was performed according to a previously published method with modifications. Briefly, cells were pre-incubated in a serum-free RPMI 1640 medium with or without γ-T3 isomers for 24 hrs. Cells (2.5×10^5) resuspended in 500 μl of serum-free RPMI 1640 containing 0.1% bovine serum albumin (BSA) were then added to the upper chamber of a 8 μm pore size insert (Millipore, Bedford, Mass.) manually coated with Matrigel (0.5 mg/ml) (BD Bioscience, Bedford, Mass.). Five hundred μl of invasion buffer containing fibronectin (10 μg/ml) and RPMI 1640 supplemented with 10% FCS were added in the lower chamber as a chemo-attractant. Cells were incubated at 37° C. for 24 hrs in 5% CO2 humidified conditions. At the end of incubation period, inserts were stained with Diff-Quick staining solution (Fischer Scientific). Non-invaded cells on the inside of the insert were scraped off with a cotton swab. Cell invasions were then examined by a phase-contrast microscope. The invaded cells were extracted using extraction buffer (Millipore, Bedford, Mass.) and the cell number was estimated based on absorbance at 595 nm.\n2.1.4 Flow cytometry was carried out as described above under item 1.1.3. Matrigel-invasion assay was carried out as described above under item 1.1.4. Western blotting was carried out as described above under item 1.1.5."}, "[1]": {"tested_on": "PC-3-Luc prostate cancer xenograft", "experiment": "PC-3-Luc prostate cancer xenograft model", "type": "in vivo, BALB/c athymic nude mice", "settings": "γ-T3 50 mg/kg/day, Docetaxel 7.5 mg/kg/week; by day 14th after start of treatment; control 620±10", "description": "4.1.3 Establishment of the PC-3 prostate cancer xenograft model—Bioluminescent PC-3-Luc human prostate cancer cell line were generated according to known methods. Briefly, cDNA encoding the luciferase gene was cloned into the pLenti-6/V5. The construct was co-transfected with the packaging mix into HEK293 and lentivirus were collected and used for infecting PC-3 cells. Transfectants were obtained as a pool (PC-3-Luc) by selection with 10 μg/mL of Blasticidine for 1 week. The animal experimental protocol was approved by NACLAR (National Advisory Committee for Laboratory Animal Research) Guideline of Singapore for proper and humane use of animals. Male BALB/c athymic nude mice (4-5 weeks old, 18-22 g) were purchased from The Jackson Laboratory (Bar Harbor, Me., USA). […]\nNude mice bearing similar tumor sizes of about 100 mm^3 (after 2 weeks inoculation) were selected and randomly divided into three groups (n=5 per group); control (DMSO as vehicle), γ-T3 (50 mg/kg/d) and combination treatment of γ-T3 and Docetaxel (50 mg of γ-T3/kg/d and 7.5 mg of Docetaxel/kg/wk). The mice were weighed as daily basic and the tumors were measured using a Digital Carbon Fiber Caliper (Fisher scientific, Pittsburgh, Pa.) at the same time. The tumor volume was calculated as 4/3*π*(mean diameter/2)^3. […]"}}, "data": [{"smiles": "CC(C)=CCC/C(C)=C/CC/C(C)=C/CCC1(C)CCc2cc(O)c(C)c(C)c2O1", "note": "(stereo not shown) [γ-T3, 7,8-dimethyltocotrienol]", "values": [{"measurement": "JNK phosphorylation", "setting": "C32 cells; C32", "result": "dosage-dependent increase in JNK phosphorylation activities"}, {"measurement": "NF-κB p65 activity (nuclear translocation)", "setting": "C32 cells; C32", "result": "suppressed constitutive NF-κB p65 activity in a dose-dependent manner"}, {"measurement": "activation of pro-apoptotic proteins (cleaved products)", "setting": "C32 cells; C32, different γ-T3 dosage, 24-hr", "result": "activation of procaspase 3, 7, 9 as well as PARP"}, {"measurement": "Id-1 and Id-3 expression levels (EGF-R similar)", "setting": "C32 cells; C32, increasing dosages", "result": "significantly suppressed to almost undetectable level"}, {"measurement": "sub-G1 cell population (flow cytometry)", "setting": "C32 cells; melanoma cells, γ-T3 at IC50, 24-hr", "result": "induction of sub-G1 cell population"}, {"measurement": "invasion capability compared to untreated control", "setting": "PC-3 cells", "result": "at least 2.5 -time lower"}, {"measurement": "tumor volume", "setting": "[1]", "result": "300±48", "unit": "mm^3"}]}]}
